The NIST ThermoML archive (doi:10.1016/j.jct.2006.12.012)

Test: xn = mol fraction of the nth substance listed
Conditions: 101 kPa, Liquid

C[S+](C)[O-] [dimethyl sulfoxide] + O
Conditions | mass density, 298.15 K [kg/m3] | mass density, 303.15 K [kg/m3] | mass density, 308.15 K [kg/m3] | mass density, 313.15 K [kg/m3] | mass density, 318.15 K [kg/m3] | viscosity, 298.15 K [mPa·s] | viscosity, 303.15 K [mPa·s] | viscosity, 308.15 K [mPa·s] | viscosity, 313.15 K [mPa·s] | viscosity, 318.15 K [mPa·s]
x1 = 0.0238 | 1009.5 | 1007.8 | 1005.89 | 1003.79 | 1001.51 | 1.033 | 0.9386 | 0.8541 | 0.7751 | 0.6982
x1 = 0.0489 | 1021.56 | 1019.59 | 1017.38 | 1015.03 | 1012.48 | 1.258 | 1.148 | 1.041 | 0.9371 | 0.8322
x1 = 0.0796 | 1034.64 | 1032.3 | 1029.76 | 1027.04 | 1024.2 | 1.597 | 1.454 | 1.309 | 1.165 | 1.02
x1 = 0.1183 | 1048.91 | 1046.26 | 1043.35 | 1040.22 | 1036.98 | 2.067 | 1.872 | 1.671 | 1.471 | 1.269
x1 = 0.1587 | 1061.32 | 1058.32 | 1055.11 | 1051.58 | 1047.91 | 2.549 | 2.295 | 2.036 | 1.778 | 1.519
x1 = 0.2036 | 1072.5 | 1069.04 | 1065.5 | 1061.82 | 1057.83 | 3.017 | 2.704 | 2.389 | 2.075 | 1.761
x1 = 0.2379 | 1079.21 | 1075.61 | 1071.77 | 1067.99 | 1063.81 | 3.301 | 2.954 | 2.604 | 2.258 | 1.911
x1 = 0.2768 | 1085.26 | 1081.43 | 1077.51 | 1073.27 | 1069.16 | 3.537 | 3.162 | 2.786 | 2.413 | 2.04
x1 = 0.3074 | 1088.96 | 1085.02 | 1080.99 | 1076.81 | 1072.4 | 3.656 | 3.269 | 2.881 | 2.496 | 2.11
x1 = 0.3335 | 1091.44 | 1087.45 | 1083.41 | 1079.21 | 1074.68 | 3.714 | 3.322 | 2.93 | 2.54 | 2.149
x1 = 0.3638 | 1093.61 | 1089.68 | 1085.47 | 1081.11 | 1076.63 | 3.735 | 3.344 | 2.953 | 2.562 | 2.172
x1 = 0.3906 | 1095.11 | 1091.09 | 1086.84 | 1082.43 | 1077.78 | 3.717 | 3.331 | 2.946 | 2.56 | 2.175
x1 = 0.4412 | 1097.04 | 1092.88 | 1088.48 | 1084.05 | 1079.52 | 3.606 | 3.241 | 2.876 | 2.508 | 2.142
x1 = 0.5193 | 1098.34 | 1094.01 | 1089.48 | 1085.1 | 1080.42 | 3.312 | 2.992 | 2.671 | 2.348 | 2.025
x1 = 0.5677 | 1098.66 | 1094.24 | 1089.61 | 1085.12 | 1080.33 | 3.102 | 2.81 | 2.519 | 2.227 | 1.934
x1 = 0.6195 | 1098.86 | 1094.29 | 1089.61 | 1085.01 | 1080.01 | 2.883 | 2.62 | 2.355 | 2.097 | 1.835
x1 = 0.6813 | 1098.85 | 1094.13 | 1089.3 | 1084.66 | 1079.61 | 2.656 | 2.421 | 2.183 | 1.958 | 1.727
x1 = 0.7595 | 1098.49 | 1093.75 | 1088.81 | 1083.92 | 1078.92 | 2.432 | 2.225 | 2.009 | 1.818 | 1.616
x1 = 0.8095 | 1098.02 | 1093.29 | 1088.4 | 1083.63 | 1078.58 | 2.32 | 2.129 | 1.926 | 1.749 | 1.559
x1 = 0.8856 | 1097.3 | 1092.53 | 1087.58 | 1082.75 | 1077.68 | 2.175 | 2.006 | 1.818 | 1.659 | 1.486
x1 = 0.9407 | 1096.83 | 1091.95 | 1086.95 | 1082.04 | 1076.93 | 2.08 | 1.92 | 1.746 | 1.599 | 1.438
x1 = 0.9781 | 1096.41 | 1091.56 | 1086.54 | 1081.71 | 1076.53 | 2.024 | 1.863 | 1.697 | 1.558 | 1.409
x1 = 1 | 1096.29 | 1091.44 | 1086.41 | 1081.59 | 1076.46 | 1.996 | 1.836 | 1.669 | 1.535 | 1.393
